From article PMC9598926, “Design and Synthesis of (Z)-5-(Substituted benzylidene)-3-cyclohexyl-2-thioxothiazolidin-4-one Analogues as Anti-Tyrosinase and Antioxidant Compounds: In Vitro and In Silico Insights” (Antioxidants, 2022)

Legend:
Format in all cases: cell-based, murine
[1] = molecular target: T1, B16F10 cellular tyrosinase (Mus musculus, UniProt P11344); assay: Cellular tyrosinase activity assay in α–MSH plus IBMX stimulated B16F10 cells; details: 5, 10, 20 µM, 72 h
T1 construct: B16F10 murine melanoma cells were used as a cellular tyrosinase source; endogenous in cells; host or cells: B16F10 murine melanoma cells (ATCC)
T1 sequence (P11344 19-533): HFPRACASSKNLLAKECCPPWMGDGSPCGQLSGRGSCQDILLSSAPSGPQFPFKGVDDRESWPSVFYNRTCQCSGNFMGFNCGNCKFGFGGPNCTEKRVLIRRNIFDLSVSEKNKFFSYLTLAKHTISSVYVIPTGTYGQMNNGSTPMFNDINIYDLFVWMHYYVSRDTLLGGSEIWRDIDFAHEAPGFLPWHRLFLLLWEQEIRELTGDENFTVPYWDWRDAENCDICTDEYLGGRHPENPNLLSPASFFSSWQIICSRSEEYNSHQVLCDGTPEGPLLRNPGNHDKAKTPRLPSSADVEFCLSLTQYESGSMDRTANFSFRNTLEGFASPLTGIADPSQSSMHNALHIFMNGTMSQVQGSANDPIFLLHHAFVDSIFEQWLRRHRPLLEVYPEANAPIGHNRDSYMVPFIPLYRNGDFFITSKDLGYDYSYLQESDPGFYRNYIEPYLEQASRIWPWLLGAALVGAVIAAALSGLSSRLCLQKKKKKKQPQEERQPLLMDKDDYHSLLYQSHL
Procedure: Cellular Tyrosinase Activity Assay
Briefly, cultured B16F10 cells were seeded in 6-well culture plate at 1 × 10^4 cells/well and incubated for 12 h under cell culture conditions to allow them to adhere to well bottoms. […] Cells were then washed with PBS twice and exposed to a lysis buffer solution (100 µL) comprised of 5 µL of 20% Triton X-100, 5 µL of 2 mM PMSF, and 90 µL of 50 mM phosphate buffer in pH 6.5. Lysates were kept at −80 °C for 30 min, defrosted, and centrifuged at 12,000 rpm for 30 min at 4 °C. Supernatants (80 µL) were mixed with 20 µL of 2 mg/mL of L-dopa in a 96-well plate, and absorbance of each well was measured at 475 nm every 10 min for 1 h at 37 °C using a microplate reader (VersaMax®, Molecular Devices, Sunnyvale, CA, USA). Experiments were performed independently 3 times.
Cellular tyrosinase activities were determined by measuring optical densities at 475 nm.

tyrosinase [2] = assay: Western blot of cytosolic tyrosinase in α–MSH/IBMX stimulated B16F10 cells; details: 5, 10, 20 µM
Procedure: 2.15. Extraction of Cytosolic and Nuclear Proteins from Cells
Western blotting was used to determine tyrosinase and MITF protein levels. Briefly, B16F10 cells were seeded in 60 mm culture dishes in the presence or absence of α–MSH (1 µM) plus IBMX (200 µM) with or without analog 3 (5, 10, and 20 µM for final concentrations) for 24 h, washed twice with ice-cold PBS and centrifuged for 10 min at 12,000× g. Cell pellets were suspended in 10 mM Tris (pH 8.0) containing 0.1% NP-40, 1 mM DTT, 1.5 mM MgCl2, 1 mM PMSF, and protease inhibitors (GenDEPOT, Barker, TX, USA), incubated on ice for 15 min, and centrifuged for 10 min at 12,000× g at 4 °C. Supernatants were used as cytosolic fractions. […] The protein concentrations were determined using a bicinchoninic acid (BCA)™ assay kit (Pierce, Rockford, IL, USA). […]
Lysed protein samples from cells were boiled for 10 min in sample-loading buffer (0.1% bromophenol blue, 25% glycerol, 60 mM Tris-HCl (pH 6.8), 2% SDS, and 0.5% β-mercaptoethanol) at a volume ratio of 1:4. […] Immunoreactive proteins were detected using the enhanced chemiluminescence (ECL) detection reagent in the SuperSignal® West Pico Chemiluminescent Substrate kit (Advansta, San Jose, CA, USA). Western blot bands were visualized using a Davinch-Chemi imager™ (Davinch-K, Seoul, Korea), and quantification was conducted by densitometric analysis using CS analyzer software ver. […]

tyrosinase [3] = assay: RT-qPCR of tyrosinase mRNA in α–MSH/IBMX stimulated B16F10 cells
Procedure: 2.17. RNA Extraction and Quantitative Real Time-Polymerase Chain Reaction (RT-qPCR)
B16F10 cells were extracted using GeneAll RiboEx Total RNA extraction reagent (GeneAll Biotechnology, Seoul, Korea) and transferred to tubes, added with chloroform (0.1 mL), shaken vigorously for 30 sec, and centrifuged for 15 min at 12,000× g. Aqueous phases were transferred to fresh tubes, and equal volumes of isopropanol were added. Samples were then incubated at 4 °C for 10 min and centrifuged for 15 min at 12,000× g at 4 °C. Supernatants were discarded, and RNA pellets were washed once with 0.8 mL of 70% ethanol and by vortexing briefly and centrifuged for 5 min at 7500× g at 4 °C. Pellets were dried at 56 °C for 10–15 min and dissolved in 30 µL of diethyl pyrocarbonate (DEPC)-treated water. The levels of RNA were determined by a Nanodrop spectrophotometer (NANO-200, Allsheng, Hangzhou, China). Complementary DNA (cDNA) was synthesized from total RNA (2 µg) using SuPrime Script RT Premix (with random hexamer) cDNA Synthesis Kit (GeNet Bio, Daejeon, Korea). […]
To further investigate the anti-melanogenesis mechanism of analog 3, we examined its effect on the expressions of melanogenesis-associated genes and levels of melanogenesis-associated proteins in B16F10 cells. […] Nuclear levels of MITF protein were measured by Western blotting in α–MSH/IBMX-stimulated B16F10 cells. […]

O=C1/C(=C/c2ccc(O)cc2O)SC(=S)N1C1CCCCC1 [Analog 3, (Z)-3-Cyclohexyl-5-(2,4-dihydroxybenzylidene)-2-thioxothiazolidin-4-one]
effect on α–MSH plus IBMX induced increase in cellular tyrosinase activity [1]: significantly and dose-dependently reduced | effect on α–MSH/IBMX-induced increase in tyrosinase expression (protein, cytosol) (tyrosinase [2]): significantly and concentration-dependently reduced | effect on expression of tyrosinase (mRNA) (tyrosinase [3]; α–MSH/IBMX stimulated): significantly and concentration-dependently decreased | tyrosinase gene expression (tyrosinase [3]; α–MSH/IBMX stimulated (3.3-fold), 5 µM): 2.6 fold
